Source: US20260166045A1, “COMBINATION THERAPY COMPRISING GSPT1-DIRECTED MOLECULAR GLUE DEGRADERS AND PI3K/AKT/mTOR PATHWAY INHIBITORS” (Monte Rosa Therapeutics, Inc., priority 2022, published 2026)

Experiments:
Assay in all cases: CellTiter-Glo 2.0 cell viability, 7x7 combination dose response matrix, synergy scoring
Format in all cases: cell-based
MCF7 cell line = conditions: MCF7, first compound 4.1-1000 nM
NCI-H1155 cell line = conditions: first compound 1.05-500 nM
CAL51 mutant cell line = conditions: first compound 4.1-1000 nM
ABC-1 cell line = conditions: ABC-1, first compound 1.05-500 nM
MDA-MB-157 cell line = conditions: first compound 4.1-1000 nM
[1] = combined with Alpelisib 41-10000 nM
[2] = combined with Capivasertib 41-10000 nM
[3] = combined with Everolimus 41-10000 nM
[4] = combined with GNE-477 41-10000 nM
[5] = combined with KU-0063794 41-10000 nM
[6] = combined with M2698 41-10000 nM
[7] = combined with GNE-477 21-10000 nM
[8] = combined with KU-0063794 21-10000 nM
[9] = combined with M2698 21-10000 nM
[10] = combined with Everolimus 4.1-1000 nM

O=C1CCC(N2Cc3ccc(COC(=O)Nc4cc(OC(F)(F)F)ccc4F)cc3C2=O)C(=O)N1 (stereo not drawn) [Compound 1-1, [2-(2,6-dioxopiperidin-3-yl)-3-oxo-2,3-dihydro-1H-isoindol-5-yl]methyl N-[2-fluoro-5-(trifluoromethoxy)phenyl]carbamate]
Mean Bliss synergy score (MCF7 cell line; [1]): 1.44
Mean Loewe synergy score (MCF7 cell line; [1]): 6.88
Mean Bliss synergy score (MCF7 cell line; [2]): 1.60
Mean Loewe synergy score (MCF7 cell line; [2]): 11.02
Mean Bliss synergy score (MCF7 cell line; [3]): 6.39
Mean Loewe synergy score (MCF7 cell line; [3]): 17.49
Mean Bliss synergy score (MCF7 cell line; [4]): 8.82
Mean Loewe synergy score (MCF7 cell line; [4]): 12.53
Mean Bliss synergy score (MCF7 cell line; [5]): 9.78
Mean Loewe synergy score (MCF7 cell line; [5]): 14.51
Mean Bliss synergy score (MCF7 cell line; [6]): 8.47
Mean Loewe synergy score (MCF7 cell line; [6]): 15.52
Mean Bliss synergy score (NCI-H1155 cell line; [7]): 1.97
Mean Loewe synergy score (NCI-H1155 cell line; [7]): 4.77
Mean Bliss synergy score (NCI-H1155 cell line; [8]): 0.38
Mean Loewe synergy score (NCI-H1155 cell line; [8]): 3.70
Mean Bliss synergy score (NCI-H1155 cell line; [9]): 1.48
Mean Loewe synergy score (NCI-H1155 cell line; [9]): 5.14
Mean Bliss synergy score (CAL51 mutant cell line; [1]): 4.76
Mean Loewe synergy score (CAL51 mutant cell line; [1]): 0.35
Mean Bliss synergy score (CAL51 mutant cell line; [2]): −0.44
Mean Loewe synergy score (CAL51 mutant cell line; [2]): −3.66
Mean Bliss synergy score (CAL51 mutant cell line; [10]): −3.14
Mean Loewe synergy score (CAL51 mutant cell line; [10]): 4.91
Mean Bliss synergy score (CAL51 mutant cell line; [4]): 2.54
Mean Loewe synergy score (CAL51 mutant cell line; [4]): −2.04
Mean Bliss synergy score (CAL51 mutant cell line; [5]): 2.83
Mean Loewe synergy score (CAL51 mutant cell line; [5]): −1.46
Mean Bliss synergy score (CAL51 mutant cell line; [6]): −2.37
Mean Loewe synergy score (CAL51 mutant cell line; [6]): −2.73
Mean Bliss synergy score (ABC-1 cell line; [7]): 17.46
Mean Loewe synergy score (ABC-1 cell line; [7]): 13.06
Mean Bliss synergy score (ABC-1 cell line; [8]): 23.16
Mean Loewe synergy score (ABC-1 cell line; [8]): 12.88
Mean Bliss synergy score (ABC-1 cell line; [9]): 17.47
Mean Loewe synergy score (ABC-1 cell line; [9]): 14.22
Mean Bliss synergy score (MDA-MB-157 cell line; [1]): −2.43
Mean Loewe synergy score (MDA-MB-157 cell line; [1]): 2.54
Mean Bliss synergy score (MDA-MB-157 cell line; [2]): 3.83
Mean Loewe synergy score (MDA-MB-157 cell line; [2]): 7.36
Mean Bliss synergy score (MDA-MB-157 cell line; [3]): 1.61
Mean Loewe synergy score (MDA-MB-157 cell line; [3]): 8.84
Mean Bliss synergy score (MDA-MB-157 cell line; [4]): 1.72
Mean Loewe synergy score (MDA-MB-157 cell line; [4]): 6.42
Mean Bliss synergy score (MDA-MB-157 cell line; [5]): 2.25
Mean Loewe synergy score (MDA-MB-157 cell line; [5]): 6.64
Mean Bliss synergy score (MDA-MB-157 cell line; [6]): 4.89
Mean Loewe synergy score (MDA-MB-157 cell line; [6]): 7.65
